According to patent US7291451B2, “Modulation of pericyte proliferation” (XOMA Technology Ltd., priority 2000, dated 2007):
“And” between values parts separate entries of the source, which are not always exact repeats. Equal values may be shown once. “Also recorded” adds a separate entry of the source.

Key:
[1] = test system: bovine retinal endothelial cells (BREC); assay: Cell growth assay (DNA content) in bovine retinal endothelial cells; type: cell-based
Method: Primary cultures of bovine retinal endothelial cells (BREC) were isolated by homogenization and a series of filtration steps as described in King et al., J. Clin. Invest., 1985, 75:1028-36. BREC were subsequently cultured with endothelial cell basal medium (EBM; Clonetics, San Diego, Calif.). supplemented with 10% plasma-derived horse serum (PDHS), 50 mg/l heparin, and 50 μg/ml endothelial cell growth factor (ECGF, Roche, Indianapolis, Ind.). Cells were characterized for homogeneity by their immunoreactivity with anti-factor VIII antibody. Cells remained morphologically unchanged under these conditions, as confirmed by light microscopy. Only cells from passages 2 through 7 were used for the experiments.
(§1) A cell growth assay was performed as follows: Cells were plated onto 12-well culture plates and incubated overnight. The cells were treated with vehicle, vascular endothelial growth factor (VEGF, R & D Systems, Minneapolis, Minn.) at 25 ng/ml, serum, compounds, or combinations thereof. The medium is changed during the incubation period, with fresh medium and fresh test compound added every 2 days. After incubation for indicated time period at 37° C., the cells were lysed in 0.1% SDS and DNA content was measured by means of Hoechst-33258 dye and a fluorometer (model TKO-100, Hoefer Scientific Instruments, San Francisco, Calif.). It has been shown that total cellular DNA content measured in this manner correlates closely with actual cell number as determined by hemocytometer counting of trypsinized cells.
(§2) Determinations were performed in triplicate and all experiments were repeated at least three times. Results are expressed as the mean ±standard deviation, unless otherwise indicated. Statistical analysis employed Student's t-test or analysis of variance to compare quantitative data populations with normal distributions and equal variance. Data were analyzed using the Mann-Whitney rank sum test or the Kruskal-Wallis test for populations with non-normal distributions or unequal variance. A P-value of <0.05 was considered statistically significant.

[2] = test system: human retinal pericytes (HRPC); assay: Human retinal pericyte proliferation assay (Methylene blue, OD650); type: cell-based; details: for toxicity on HRPC: initial assay; for HRPC proliferation: initial experiment, treated once, medium not changed
Method: In addition to studies with primary cell cultures of bovine retinal pericytes described above, experiments were performed with a human cell line obtained from Clonetics (San Diego, Calif.) of retinal pericytes (catalog no. CC-2542 PyCRt). These human retinal pericytes (HRPC) were cultured in Dulbecco's modified Eagle's medium (DMEM, Gibco BRL, Grand Island, N.Y.) with 5.6 mM glucose and 20% fetal bovine serum (FBS, Gibco BRL, Grand Island, N.Y.).
Proliferation assays were performed as follows: HRPC were plated onto 24-well culture plates (3000 cells/well) in 5 or 10% FBS-DMEM with 5.6 mM glucose and incubated overnight. The cells were treated once with vehicle alone or with vehicle and several concentrations of XMP.627 ([SEQ ID NO: 4]), XMP.664 ([SEQ ID NO: 5]), XMP.679 ([SEQ ID NO: 3]), or XMP.728 ([SEQ ID NO: 6]) for 5 or 6 days. The medium was not changed, nor were additional amounts of test compounds added as described in the experiments of part A above. The cells were fixed and stained with Methylene blue and proliferation assayed by observation at OD650.

[3] = test system: bovine retinal pericytes (BRPC); assay: Cell growth assay (DNA content, cell number) in bovine retinal pericytes; type: cell-based
Method: as §1, §2
Primary cultures of bovine retinal pericytes (BRPC) were isolated by homogenization and a series of filtration steps as described in King et al., J. Clin. Invest., 1985, 75:1028-36. BRPC were cultured in Dulbecco's modified Eagle's medium (DMEM, Gibco BRL, Grand Island, N.Y.) with 5.5 mM glucose and 20% fetal bovine serum (FBS, Gibco BRL, Grand Island, N.Y.). Cells were characterized for homogeneity by their immunoreactivity with monoclonal antibody 3G5 [Nayak et al., J. Exp. Med. 1988, 167:1003-15]. Cells remained morphologically unchanged under these conditions, as confirmed by light microscopy. Only cells from passages 2 through 7 were used for the experiments.
A cell growth assay was performed as described above in Example 1 and the medium was changed, with fresh medium and fresh test compound added every 2 or 3 days, preferably every 2 days. […] At 20% FBS a six to seven fold increase of total DNA was detected.

[4] = test system: MAP kinase phosphorylation; assay: MAP kinase phosphorylation in BRPC; type: cell-based, bovine; details: 75 μg/ml
Method: Experiments were also performed in which the level of MAP kinase phosphorylation was determined in BRPC treated with 75 μg/ml rBPI21 or 5 μg/ml XMP.679. […] These observations indicate that exemplary BPI protein products rBPI21 and, to a lesser extent, XMP.679, enhance MAP kinase phosphorylation in BRPC.

[5] = test system: Bovine retinal pigment epithelial cells (RPEC); assay: Cell growth assay in bovine retinal pigment epithelial cells; type: cell-based; details: 75 μg/ml
Method: as §1
Bovine retinal pigment epithelial cells (RPEC) were isolated by gentle scraping after removal of the neural retina and incubation with 0.2% collagenase as described in King et al., Diabetes, 1987, 36:1460-7. RPEC were cultured in DMEM with 5.5 mM glucose and 10% calf serum (CS, Gibco BRL, Grand Island, N.Y.). Cells were cultured in 5% CO2 at 37° C., and media were changed every other days. Cells were characterized for their homogeneity by immunoreactivity with anti-cytokeratin antibody for RPEC. […]

Molecule: VEGF [reference compound]
- increase of DNA content ([1]; VEGF alone at 25 ng/ml): 3 to 5 fold and 3 to 4 fold

Molecule: XMP.365: BPI protein product, SEQ ID NO: 11 (KWLIQLFHKK; XMP.365; listed as Homo sapiens)
- toxicity on HRPC [2]: some toxicities

Molecule: XMP.627: BPI-derived peptide, SEQ ID NO: 4 (KLFRAQAKAKG; XMP.627; listed as Homo sapiens)
- concentration of maximum HRPC proliferation ([2]; 5% FBS): approximately 5 μg/ml
- effect on HRPC proliferation ([2]; 10% FBS): did increase HRPC proliferation
- effect on HRPC growth ([2]; above 10 μg/ml, 5% FBS): slight growth inhibitory effect
- effect on HRPC proliferation ([2]; approximately 0.5, 1, 5, 8 μg/ml, 5% FBS): increased HRPC proliferation in a dose responsive manner

Molecule: XMP.629: BPI protein product, SEQ ID NO: 12 (KLFRAQAKA; XMP.629; listed as Homo sapiens)
- HRPC proliferation [2]: enhanced the proliferation of HRPC

Molecule: XMP.664: BPI-derived peptide, SEQ ID NO: 5 (KLFRAQAK; XMP.664; listed as Homo sapiens)
- effect on HRPC growth ([2]; 10 μg/ml and higher, 5% FBS): slight growth inhibitory effect
- effect on HRPC proliferation ([2]; 10 μg/ml, 10% FBS): increased HRPC proliferation
- concentration of maximum HRPC proliferation ([2]; 5% FBS): approximately 5 μg/ml
- effect on HRPC proliferation ([2]; above 10 μg/ml, 10% FBS): inhibited proliferation
- effect on HRPC proliferation ([2]; approximately 0.5, 1, 5 μg/ml, 5% FBS): increased HRPC proliferation in a dose responsive manner

Molecule: XMP.676: BPI protein product, SEQ ID NO: 13 (KAVIQVVAKK; XMP.676; listed as Homo sapiens)
- HRPC proliferation [2]: enhanced the proliferation of HRPC

Molecule: XMP.711: BPI protein product, SEQ ID NO: 7 (KLARK; XMP.711; listed as Homo sapiens)
- HRPC proliferation [2]: little or no proliferation

Molecule: XMP.718: BPI protein product, SEQ ID NO: 10 (KLFRKA; XMP.718; listed as Homo sapiens)
- toxicity on HRPC [2]: some toxicities

Molecule: XMP.728: BPI-derived peptide, SEQ ID NO: 6 (KLFKAQAKAKG; XMP.728; listed as Homo sapiens)
- effect on HRPC proliferation ([2]; 10% FBS): to lesser extent
- effect on HRPC proliferation ([2]; only at approximately 5 μg/ml, 5% FBS): increased HRPC proliferation

Molecule: XMP.768: BPI protein product, SEQ ID NO: 14 (KLFRAQAK; XMP.768; listed as Homo sapiens)
- HRPC proliferation [2]: enhanced the proliferation of HRPC

Molecule: XMP.851: BPI protein product, SEQ ID NO: 15 (KLFRAQA; XMP.851; listed as Homo sapiens)
- HRPC proliferation [2]: enhanced the proliferation of HRPC

Molecule: XMP.852: BPI protein product, SEQ ID NO: 8 (KLFRAQ; XMP.852; listed as Homo sapiens)
- HRPC proliferation [2]: little or no proliferation

Molecule: XMP.861: BPI protein product, SEQ ID NO: 9 (KLFRA; XMP.861; listed as Homo sapiens)
- HRPC proliferation [2]: little or no proliferation

B1: rBPI21: recombinant N-terminal BPI analog, amino acids 1 to approximately 193 or 199, cysteine 132 substituted with alanine (protein, UniProt P17213 32-224, looked up, variant C132A)
chain: VNPGVVVRISQKGLDYASQQGTAALQKELKRIKIPDYSDSFKIKHLGKGHYSFYSMDIREFQLPSSQISMVPNVGLKFSISNANIKISGKWKAQKRFLKMSGNFDLSIEGMSISADLKLGSNPTSGKPTITASSCSSHINSVHVHISKSKVGWLIQLFHKKIESALRNKMNSQVCEKVTNSVSSELQPYFQTL
- stimulation of proliferation ([3]; 75 μg/mL, 5, 10 or 15% FBS): 3 fold
- increase of DNA above basal level ([3]; 75 μg/ml, 5% FBS): 5 fold
- maximum growth compared with 20% FBS ([3]; 75 μg/ml, 5% FBS): almost equaled the growth effect of 20% FBS
- growth compared with 20% FBS ([3]; 75 μg/ml, 15% FBS): increased the growth greater then 20% FBS
- effect on DNA content ([3]; 5, 25, 75 μg/ml, 5% FBS): increased DNA content in a dose responsive manner
- total number of cells per well ([3]; 5, 25, 75 μg/ml, 5% FBS): increased in a dose responsive manner
- effect on growth ([3]; 5, 25 and 75 μg/ml, 10% FBS): induced the growth of pericyte
- growth compared with 20% FBS ([3]; 25 and 75 μg/ml, 10% FBS): appeared to improve growth above that of 20% FBS
- HRPC proliferation [2]: little or no proliferation
- time of maximum MAP kinase phosphorylation after addition [4]: 15 min
- effect on MAP kinase phosphorylation ([4]; 1 to 60 minutes): increased MAP kinase phosphorylation over time
- maximum MAP kinase phosphorylation compared with 20% FBS ([4]; 15 minutes): nearly equaled the effect of 20% FBS
- effect on DNA content ([1]; 5 μg/ml compound, with and without VEGF): did not have a significant effect
- effect on DNA content (VEGF-dependent growth) ([1]; VEGF 25 ng/ml plus 25 μg/ml compound): did not have a significant effect
- effect on DNA content (VEGF-dependent growth) ([1]; VEGF 25 ng/ml plus 75 μg/ml compound): decreased significantly the DNA content; also recorded: prevented VEGF-dependent growth
- effect on total DNA content (growth) ([1]; compound alone without VEGF, 25 or 75 μg/ml): did not have a significant effect
- effect on RPEC growth [5]: had no effect
